Reference: patent US20250114486A1, “MARKED FATTY ACID DERIVATIVE, PRECURSOR COMPOUND THEREOF, AND USE THEREOF IN CONTRAST AGENT” (BEIJING NORMAL UNIVERSITY, priority 2022, published 2025)
Values belong to the molecule of their own block, whether it stands above or below them.

Assay: In vivo biodistribution in female Kunming mice
Details: for Biodistribution: Large Intestine / Biodistribution: Small Intestine / Biodistribution: Stomach: unit % ID; for absolute myocardial uptake (assessment): after tail vein injection
Protocol: Female Kunming mice (20-22 g, n=3) were fasted for 12 h before the experiment, and the purified radioactive ^99mTc complex 130 was dissolved in a normal saline (containing 10% ethanol) solution (about 100 μCi/mL). Female Kunming mice were injected with 100 μL of the above solution through the tail vein, and the mice were killed by cervical dislocation at 5, 15, 30, 60, and 120 min post-injection, respectively. Blood, brain, heart, liver, spleen, lung, kidney, muscle, bone, large intestine, small intestine, stomach and tail were collected, weighed and counted, and the count distribution of each tissue and organ was calculated (unit: % ID/g, the unit of large intestine, small intestine and stomach was % ID), and the data were the mean±standard deviation of three mice in each time phase. At the same time, 100 μL of the above solution was diluted to 10 mL, which was used as the % ID without deducting the tail count.
The corresponding radioactive ^99mTc complex 158 as the typical compounds of the general formula V in this application was selected to conduct an in vivo biodistribution study in female Kunming mice. The specific experimental method was shown in the experimental method of “In vivo biodistribution study of radioactive ^99mTc complex 130 in female Kunming mice” in Example 7 above.

Biodistribution: Blood (5 min post-injection): 0.54 ± 0.07 ID %/g | Biodistribution: Bone (5 min post-injection): 0.54 ± 0.10 ID %/g | Biodistribution: Brain (5 min post-injection): 0.04 ± 0.00 ID %/g | Biodistribution: Heart (5 min post-injection): 2.14 ± 0.25 ID %/g | Biodistribution: Kidney (5 min post-injection): 9.64 ± 0.08 ID %/g | Biodistribution: Liver (5 min post-injection): 53.13 ± 4.86 ID %/g | Biodistribution: Lungs (5 min post-injection): 0.84 ± 0.09 ID %/g | Biodistribution: Muscle (5 min post-injection): 0.75 ± 0.06 ID %/g | Biodistribution: Spleen (5 min post-injection): 0.67 ± 0.04 ID %/g | Heart-to-Blood ratio (5 min post-injection): 3.96 | Heart-to-Liver ratio (5 min post-injection): 0.04 | Heart-to-Lungs ratio (5 min post-injection): 2.55 | Heart-to-Muscle ratio (5 min post-injection): 2.85 | Biodistribution: Large Intestine (5 min post-injection): 0.53 ± 0.10 % ID | Biodistribution: Small Intestine (5 min post-injection): 4.32 ± 0.25 % ID | Biodistribution: Stomach (5 min post-injection): 0.17 ± 0.02 % ID | Biodistribution: Blood (15 min post-injection): 0.24 ± 0.01 ID %/g | Biodistribution: Bone (15 min post-injection): 0.76 ± 0.13 ID %/g | Biodistribution: Brain (15 min post-injection): 0.03 ± 0.01 ID %/g | Biodistribution: Heart (15 min post-injection): 1.92 ± 0.18 ID %/g | Biodistribution: Kidney (15 min post-injection): 7.89 ± 0.19 ID %/g | Biodistribution: Liver (15 min post-injection): 42.04 ± 2.91 ID %/g | Biodistribution: Lungs (15 min post-injection): 0.76 ± 0.03 ID %/g | Biodistribution: Muscle (15 min post-injection): 0.67 ± 0.07 ID %/g | Biodistribution: Spleen (15 min post-injection): 0.50 ± 0.03 ID %/g | Heart-to-Blood ratio (15 min post-injection): 8.00 | Heart-to-Liver ratio (15 min post-injection): 0.05 | Heart-to-Lungs ratio (15 min post-injection): 2.53 | Heart-to-Muscle ratio (15 min post-injection): 2.87 | Biodistribution: Large Intestine (15 min post-injection): 0.82 ± 0.34 % ID | Biodistribution: Small Intestine (15 min post-injection): 20.74 ± 0.83 % ID | Biodistribution: Stomach (15 min post-injection): 0.26 ± 0.01 % ID | Biodistribution: Blood (30 min post-injection): 0.12 ± 0.04 ID %/g | Biodistribution: Bone (30 min post-injection): 0.33 ± 0.12 ID %/g | Biodistribution: Brain (30 min post-injection): 0.02 ± 0.01 ID %/g | Biodistribution: Heart (30 min post-injection): 1.54 ± 0.38 ID %/g | Biodistribution: Kidney (30 min post-injection): 2.51 ± 0.58 ID %/g | Biodistribution: Liver (30 min post-injection): 18.08 ± 0.30 ID %/g | Biodistribution: Lungs (30 min post-injection): 0.28 ± 0.05 ID %/g | Biodistribution: Muscle (30 min post-injection): 0.59 ± 0.16 ID %/g | Biodistribution: Spleen (30 min post-injection): 0.31 ± 0.05 ID %/g | Heart-to-Blood ratio (30 min post-injection): 12.83 | Heart-to-Liver ratio (30 min post-injection): 0.09 | Heart-to-Lungs ratio (30 min post-injection): 5.50 | Heart-to-Muscle ratio (30 min post-injection): 2.61 | Biodistribution: Large Intestine (30 min post-injection): 1.56 ± 0.16 % ID | Biodistribution: Small Intestine (30 min post-injection): 29.63 ± 3.26 % ID | Biodistribution: Stomach (30 min post-injection): 0.12 ± 0.04 % ID | Biodistribution: Blood (60 min post-injection): 0.08 ± 0.01 ID %/g | Biodistribution: Bone (60 min post-injection): 0.15 ± 0.03 ID %/g | Biodistribution: Brain (60 min post-injection): 0.02 ± 0.00 ID %/g | Biodistribution: Heart (60 min post-injection): 1.37 ± 0.26 ID %/g | Biodistribution: Kidney (60 min post-injection): 1.20 ± 0.10 ID %/g | Biodistribution: Liver (60 min post-injection): 15.12 ± 1.7 ID %/g | Biodistribution: Lungs (60 min post-injection): 0.19 ± 0.01 ID %/g | Biodistribution: Muscle (60 min post-injection): 0.43 ± 0.09 ID %/g | Biodistribution: Spleen (60 min post-injection): 0.14 ± 0.03 ID %/g | Heart-to-Blood ratio (60 min post-injection): 17.13 | Heart-to-Liver ratio (60 min post-injection): 0.09 | Heart-to-Lungs ratio (60 min post-injection): 7.21 | Heart-to-Muscle ratio (60 min post-injection): 3.19 | Biodistribution: Large Intestine (60 min post-injection): 16.13 ± 5.3 % ID | Biodistribution: Small Intestine (60 min post-injection): 26.18 ± 3.9 % ID | Biodistribution: Stomach (60 min post-injection): 0.29 ± 0.05 % ID | Biodistribution: Blood (120 min post-injection): 0.04 ± 0.01 ID %/g | Biodistribution: Bone (120 min post-injection): 0.09 ± 0.01 ID %/g | Biodistribution: Brain (120 min post-injection): 0.02 ± 0.01 ID %/g | Biodistribution: Heart (120 min post-injection): 1.27 ± 0.03 ID %/g | Biodistribution: Kidney (120 min post-injection): 0.30 ± 0.04 ID %/g | Biodistribution: Liver (120 min post-injection): 3.74 ± 0.98 ID %/g | Biodistribution: Lungs (120 min post-injection): 0.19 ± 0.05 ID %/g | Biodistribution: Muscle (120 min post-injection): 0.38 ± 0.10 ID %/g | Biodistribution: Spleen (120 min post-injection): 0.13 ± 0.02 ID %/g | Heart-to-Blood ratio (120 min post-injection): 31.75 | Heart-to-Liver ratio (120 min post-injection): 0.34 | Heart-to-Lungs ratio (120 min post-injection): 6.68 | Heart-to-Muscle ratio (120 min post-injection): 3.34 | Biodistribution: Large Intestine (120 min post-injection): 34.11 ± 4.52 % ID | Biodistribution: Small Intestine (120 min post-injection): 7.50 ± 2.45 % ID | Biodistribution: Stomach (120 min post-injection): 0.17 ± 0.12 % ID | absolute myocardial uptake (assessment): relatively low
SMILES: COC(C)(C)C[N+]#[C][99Tc-5]([C]#[N+]CC(C)(C)OC)([C]#[N+]CC(C)(C)OC)([C]#[N+]CC(C)(C)OC)([C]#[N+]CC(C)(C)OC)[C]#[N+]CC(C)(C)OCCCS(=O)(=O)CCCCCSCCCCC(=O)O [^99mTc complex 130]

heart-to-blood ratios (assessment): moderate level | heart-to-lungs ratios (assessment): moderate level | myocardial clearance: fast | Biodistribution: Blood (5 min post-injection): 13.21 ± 2.84 ID %/g | Biodistribution: Bone (5 min post-injection): 2.31 ± 0.36 ID %/g | Biodistribution: Brain (5 min post-injection): 0.39 ± 0.14 ID %/g | Biodistribution: Heart (5 min post-injection): 4.19 ± 0.10 ID %/g | Biodistribution: Kidney (5 min post-injection): 7.80 ± 1.46 ID %/g | Biodistribution: Liver (5 min post-injection): 37.80 ± 6.80 ID %/g | Biodistribution: Lungs (5 min post-injection): 5.91 ± 0.89 ID %/g | Biodistribution: Muscle (5 min post-injection): 1.82 ± 0.16 ID %/g | Biodistribution: Spleen (5 min post-injection): 1.55 ± 0.01 ID %/g | Heart-to-Blood ratio (5 min post-injection): 0.32 | Heart-to-Liver ratio (5 min post-injection): 0.11 | Heart-to-Lungs ratio (5 min post-injection): 0.71 | Biodistribution: Large Intestine (5 min post-injection): 1.04 ± 0.37 % ID | Biodistribution: Small Intestine (5 min post-injection): 5.39 ± 0.84 % ID | Biodistribution: Stomach (5 min post-injection): 0.54 ± 0.19 % ID | Biodistribution: Blood (15 min post-injection): 5.47 ± 0.09 ID %/g | Biodistribution: Bone (15 min post-injection): 1.04 ± 0.38 ID %/g | Biodistribution: Brain (15 min post-injection): 0.14 ± 0.05 ID %/g | Biodistribution: Heart (15 min post-injection): 1.63 ± 0.02 ID %/g | Biodistribution: Kidney (15 min post-injection): 4.59 ± 0.68 ID %/g | Biodistribution: Liver (15 min post-injection): 33.35 ± 0.37 ID %/g | Biodistribution: Lungs (15 min post-injection): 2.69 ± 0.70 ID %/g | Biodistribution: Muscle (15 min post-injection): 1.10 ± 0.22 ID %/g | Biodistribution: Spleen (15 min post-injection): 0.86 ± 0.28 ID %/g | Heart-to-Blood ratio (15 min post-injection): 0.30 | Heart-to-Liver ratio (15 min post-injection): 0.05 | Heart-to-Lungs ratio (15 min post-injection): 0.61 | Biodistribution: Large Intestine (15 min post-injection): 0.67 ± 0.15 % ID | Biodistribution: Small Intestine (15 min post-injection): 16.67 ± 2.60 % ID | Biodistribution: Stomach (15 min post-injection): 0.46 ± 0.13 % ID | Biodistribution: Blood (30 min post-injection): 1.20 ± 0.1 ID %/g | Biodistribution: Bone (30 min post-injection): 0.37 ± 0.1 ID %/g | Biodistribution: Brain (30 min post-injection): 0.1 ± 0.04 ID %/g | Biodistribution: Heart (30 min post-injection): 0.91 ± 0.11 ID %/g | Biodistribution: Kidney (30 min post-injection): 2.22 ± 0.2 ID %/g | Biodistribution: Liver (30 min post-injection): 22.5 ± 3.2 ID %/g | Biodistribution: Lungs (30 min post-injection): 0.9 ± 0.04 ID %/g | Biodistribution: Muscle (30 min post-injection): 0.46 ± 0.1 ID %/g | Biodistribution: Spleen (30 min post-injection): 0.55 ± 0.1 ID %/g | Heart-to-Blood ratio (30 min post-injection): 0.76 | Heart-to-Liver ratio (30 min post-injection): 0.04 | Heart-to-Lungs ratio (30 min post-injection): 1.00 | Biodistribution: Large Intestine (30 min post-injection): 1.25 ± 0.1 % ID | Biodistribution: Small Intestine (30 min post-injection): 20.9 ± 4.6 % ID | Biodistribution: Stomach (30 min post-injection): 0.25 ± 0.1 % ID | Biodistribution: Blood (60 min post-injection): 0.42 ± 0.03 ID %/g | Biodistribution: Bone (60 min post-injection): 0.24 ± 0.04 ID %/g | Biodistribution: Brain (60 min post-injection): 0.06 ± 0.01 ID %/g | Biodistribution: Heart (60 min post-injection): 0.67 ± 0.09 ID %/g | Biodistribution: Kidney (60 min post-injection): 1.20 ± 0.10 ID %/g | Biodistribution: Liver (60 min post-injection): 22.8 ± 1.20 ID %/g | Biodistribution: Lungs (60 min post-injection): 0.50 ± 0.02 ID %/g | Biodistribution: Muscle (60 min post-injection): 0.31 ± 0.06 ID %/g | Biodistribution: Spleen (60 min post-injection): 0.24 ± 0.06 ID %/g | Heart-to-Blood ratio (60 min post-injection): 1.60 | Heart-to-Liver ratio (60 min post-injection): 0.03 | Heart-to-Lungs ratio (60 min post-injection): 1.34 | Biodistribution: Large Intestine (60 min post-injection): 1.31 ± 0.27 % ID | Biodistribution: Small Intestine (60 min post-injection): 34.24 ± 3.12 % ID | Biodistribution: Stomach (60 min post-injection): 0.38 ± 0.05 % ID | Biodistribution: Blood (120 min post-injection): 0.26 ± 0.01 ID %/g | Biodistribution: Bone (120 min post-injection): 0.15 ± 0.05 ID %/g | Biodistribution: Brain (120 min post-injection): 0.03 ± 0.02 ID %/g | Biodistribution: Heart (120 min post-injection): 0.52 ± 0.01 ID %/g | Biodistribution: Kidney (120 min post-injection): 0.80 ± 0.07 ID %/g | Biodistribution: Liver (120 min post-injection): 13.81 ± 0.59 ID %/g | Biodistribution: Lungs (120 min post-injection): 0.32 ± 0.06 ID %/g | Biodistribution: Muscle (120 min post-injection): 0.21 ± 0.03 ID %/g | Biodistribution: Spleen (120 min post-injection): 0.15 ± 0.07 ID %/g | Heart-to-Blood ratio (120 min post-injection): 2.00 | Heart-to-Liver ratio (120 min post-injection): 0.04 | Heart-to-Lungs ratio (120 min post-injection): 1.63 | Biodistribution: Large Intestine (120 min post-injection): 1.02 ± 0.22 % ID | Biodistribution: Small Intestine (120 min post-injection): 19.83 ± 1.14 % ID | Biodistribution: Stomach (120 min post-injection): 0.47 ± 0.10 % ID | absolute myocardial uptake (assessment): low
SMILES: COC(C)(C)C[N+]#[C][99Tc-5]([C]#[N+]CC(C)(C)OC)([C]#[N+]CC(C)(C)OC)([C]#[N+]CC(C)(C)OC)([C]#[N+]CC(C)(C)OC)[C]#[N+]CC(C)(C)OCCCS(=O)(=O)CCCCCS(=O)(=O)CCCSCCCCC(=O)O [^99mTc complex 158]
